Test [1] addresses T1, Farnesyl pyrophosphate synthase (Homo sapiens) (UniProt P14324).
T1 sequence (whole entry): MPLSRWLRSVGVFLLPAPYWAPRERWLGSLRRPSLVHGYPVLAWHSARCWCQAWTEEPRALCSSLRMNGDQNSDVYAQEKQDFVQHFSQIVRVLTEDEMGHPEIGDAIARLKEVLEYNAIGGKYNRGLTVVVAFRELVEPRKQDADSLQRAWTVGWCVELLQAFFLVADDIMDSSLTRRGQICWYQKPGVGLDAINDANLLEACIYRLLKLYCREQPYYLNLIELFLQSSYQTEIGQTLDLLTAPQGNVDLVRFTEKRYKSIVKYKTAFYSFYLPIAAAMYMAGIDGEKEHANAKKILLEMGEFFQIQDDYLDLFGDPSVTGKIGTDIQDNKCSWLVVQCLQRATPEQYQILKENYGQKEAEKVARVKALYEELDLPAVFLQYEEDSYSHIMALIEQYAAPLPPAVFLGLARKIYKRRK
The test is described as follows: Inhibition of FPPS.

In test [2] the target is T2, 4,4'-diapophytoene synthase (Staphylococcus aureus, UniProt A9JQL9).
T2 sequence (A9JQL9 whole entry): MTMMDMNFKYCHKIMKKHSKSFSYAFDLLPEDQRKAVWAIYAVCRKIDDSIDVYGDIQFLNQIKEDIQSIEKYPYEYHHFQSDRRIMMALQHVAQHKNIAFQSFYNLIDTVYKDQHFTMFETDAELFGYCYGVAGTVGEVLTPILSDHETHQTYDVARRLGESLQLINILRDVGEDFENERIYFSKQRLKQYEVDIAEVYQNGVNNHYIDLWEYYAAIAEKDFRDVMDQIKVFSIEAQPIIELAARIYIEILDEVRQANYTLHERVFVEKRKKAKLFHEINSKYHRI
The test is described as follows: Inhibition of Staphylococcus aureus His6-tagged CrtM expressed in Escherichia coli BL21(DE3) using Farnesyl pyrophosphate as substrate incubated for 30 mins prior to substrate addition by continuous spectrophotometric assay.

A short description of test [3]: Inhibition of Escherichia coli UPPS-mediated undecaprenyl pyrophosphate synthesis by continuous spectrophotometric assay.
The nature of test [4]: Inhibition of Staphylococcus aureus UPPS-mediated undecaprenyl pyrophosphate synthesis by continuous spectrophotometric assay.
The subject of test [5] is Escherichia coli. The test is described as follows: Antibacterial activity against Escherichia coli DH5alpha. It counts as functional, organism-based. The note with it: DH5[alpha].
The test system of another test is Bacillus anthracis. Kind of test: Antibacterial activity against Bacillus anthracis str. Sterne. It counts as functional.
Another test relates to Listeria monocytogenes. The test is described as follows: Antibacterial activity against Listeria monocytogenes. It counts as functional.
Another test deals with Enterococcus faecium. Kind of test: Antibacterial activity against Enterococcus faecium U503. The test is classed as functional.
Test [6] can be described thus: Antibacterial activity against Streptococcus pyogenes M1. The test is classed as functional, Streptococcus pyogenes serotype M1.
For the next test, the system named is MCF7. Kind of test: Cytotoxicity against human MCF7 cells. It counts as cell-based.
Test [7] deals with Escherichia coli. The test is described as follows: Antibacterial activity against Escherichia coli K12. It counts as functional, organism-based. The note with it: K-12.
Test [8] deals with T2, 4,4'-diapophytoene synthase. The test is described as follows: Inhibition of Staphylococcus aureus isolate WT CrtM-mediated staphyloxanthin synthesis after 72 hrs by spectrophotometry.
A further test has as its system Staphylococcus aureus. Kind of test: Antibacterial activity against methicillin-resistant Staphylococcus aureus USA300. The test is classed as functional.

For orientation: pIC50 means −log10 of the IC50, conventionally taken in molar units. Lower therefore signals a high IC50. For orientation: MIC90 means an inhibitory concentration at the 90% level, which refers to growth in some studies and to a panel of isolates in others. The term pKi denotes the negative decadic logarithm of the Ki, by convention in mol/L.

The structures appear in SMILES notation. pIC50, pKi: −log10 of the molar value. Converted amounts (≈) assume the structure as drawn. The source made the active and inactive calls. No cut-off for these calls is given here.

Consider `O=C(CP(=O)(O)O)NCCCc1cccc(Oc2ccccc2)c1`, for which the inhibition entry in test [1] was “inactive”.

For `CCCCCCCCCCOc1cccc(C(=O)/C=C(\O)C(=O)O)c1`, the pIC50 in test [2] is 4.17; in test [3], 5.72; in test [4], 6.14; in the test on MCF7, 4.52. Also, the result in the test with Escherichia coli [5] and in the test on Escherichia coli [7] was inactive. In addition, the MIC90 is 0.5 µg/mL (≈ 1.43 µM) against Bacillus anthracis, 4 µg/mL (≈ 11.5 µM) with Listeria monocytogenes, 4 µg/mL (≈ 11.5 µM) in the test with Enterococcus faecium and 1 µg/mL (≈ 2.87 µM) in [6]. In addition, the inhibition entry in [1] is “inactive”.

Turning to `O=C(/C=C(\O)C(=O)O)NCCCc1cccc(Oc2ccccc2)c1`, the pIC50 in test [2] is 4.62; in [3], 5.66; in test [8] it was 5.40. In test [2], this compound had a pKi of 6.60. In test [1], the inhibition entry was “inactive”.

Consider `O=C(/C=C(\O)C(=O)O)NCCCc1cccc(-c2ccccc2)c1`, for which the negative logarithm of the IC50 (pIC50) in test [2] was 4.62; in test [3], 6.62; in test [4], 5.74. This compound also showed a pKi in test [3] of 6.92. Also, in test [1], the inhibition result was “inactive”.

Regarding `CCCCCCOc1cccc(Cn2ccc(O)c(C(=O)O)c2=O)c1`, the figures for the negative-log IC50 (pIC50) in [2], in [3] and in test [8] were 4.34, 4.57 and 4.48, respectively. The pKi in [2] was 6.35. Besides, in [1], the inhibition result was “inactive”.

On to `CCCCCCCCOc1ccc(C(=O)/C=C(\O)C(=O)O)cc1`, for which the pIC50 was less than 3.52 in test [2], 6.30 in test [3], 5.70 in test [4] and 4.52 with MCF7. The MIC90 stood at 0.25 µg/mL (≈ 0.78 µM) with Staphylococcus aureus; 0.5 µg/mL (≈ 1.56 µM) against Bacillus anthracis; 4 µg/mL (≈ 12.5 µM) against Listeria monocytogenes; 4 µg/mL (≈ 12.5 µM) against Enterococcus faecium; 1 µg/mL (≈ 3.12 µM) in [6]. Moreover, the outcome in the test with Escherichia coli [5] and in the test with Escherichia coli [7] was inactive. The inhibition entry in test [1] was “inactive”.

On to `CCCCCCOc1cccc(CCCNC(=O)/C=C(\O)C(=O)O)c1`, for which the results for the negative logarithm of the IC50 (pIC50) in test [2], in test [3] and in test [4] were less than 3.52, 6.25 and 6.12, respectively. Besides, in test [1], the inhibition result was “inactive”.

In [3], `O=P(O)(O)C(O)(Cc1cccc(-c2cccc3c2oc2ccccc23)c1)P(=O)(O)O` showed a pIC50 of 6.52.

For the compound `CCCCCCCCCCOc1cccc(Cn2ccc(O)c(C(=O)O)c2=O)c1`, the negative logarithm of the IC50 (pIC50) in test [2], in test [3] and in [4] was less than 3.52 throughout. Besides, the inhibition entry in [1] is “inactive”.

These data come from ChEMBL document CHEMBL2062486, “HIV-1 Integrase Inhibitor-Inspired Antibacterials Targeting Isoprenoid Biosynthesis” (ACS Med Chem Lett, 2012).
